Source: patent US20190000889A1, “METHODS FOR TREATING DIABETES” (CITY OF HOPE, priority 2015, published 2019)

Tests used:
Format in all cases: in vivo
C57BL/6 mice = assay: Alloxan induction of diabetes, blood glucose levels by day 28; details: one i.v. dose Alloxan 70 mg/kg, day 28, n=222
Protocol: 8-week-old female mice were I.V. injected with β cell toxin Alloxan (Sigma) at 70 mg/kg body weight. Tail vein blood glucose was measured daily or twice a week with Precision Xtra Glucose Meter (Abbott Diabetes Care Inc.) with a maximum reading of 500 mg/dL Tamoxifen (TM, Sigma) was prepared at 20 mg/mL in corn oil (Sigma). For tracing studies in adult mice, a total of 20 mg of TM was given […] in five doses (each 4 mg) over a 2-week period. Mice rendered diabetic (>300 mg/dL) over a period of 28 days were used in subsequent experiments.
This example investigates whether Sox9^+ pancreatic ductal cells could give rise to insulin-producing β cells in adult diabetic mice after GE treatment, using non-autoimmune Sox9^CreERT2R26^mT/mG C57BL/6 mice. First, a β cell neogenesis mouse model in non-autoimmune diabetic C57BL/6 mice was established. 8 week-old adult female C57BL/6 mice were induced to develop diabetes by one intravenous injection of Alloxan (70 mg/kg body weight) as previously described (14, 27). Mice developed variable levels of hyperglycemia, including mild (<300 mg/dL), medium (300-450 mg/dL) and high hyperglycemia (>450 mg/dL). C57BL/6 mice (n=222) were induced to render diabetic by intravenously injecting one dose of Alloxan (70 mg/kg body weight) at day 0. Blood glucose (BG) concentrations in mice were measured twice a week for 4 weeks.

[1] = tested on: pre-existing insulin-producing β cells; assay: Lineage tracing of pre-existing β cells in Ins1CreERT R26mT/mG mice, long-term low-dose GE; details: non-diabetic Ins1CreERT R26mT/mG mice, TM 20 mg in five doses over 2 weeks
Protocol: 8 weeks old female Ins1^CreERTR26^mT/mG mice were first given I.P. injection of Tamoxifen™ every two days over a 2-week period to induce EGFP expression and label the pre-existing β cells. Thereafter, mice were induced to develop diabetes with Alloxan, and mice with medium or high hyperglycemia were treated with GE or PBS control. At the end of the experiments, the pancreases were harvested and stained for insulin and EGFP, and merged staining was also shown. Nuclei were labeled by DAPI. The percentage of EGFP^+Ins^+ cells amongst total Insulin^+ cells was calculated. Normal non-diabetic mice were used as a control for checking EGFP labeling efficiency.
(§1) 8-week-old female mice were I.V. injected with β cell toxin Alloxan (Sigma) at 70 mg/kg body weight. Tail vein blood glucose was measured daily or twice a week with Precision Xtra Glucose Meter (Abbott Diabetes Care Inc.) with a maximum reading of 500 mg/dL Tamoxifen (TM, Sigma) was prepared at 20 mg/mL in corn oil (Sigma). […]
Percentage of EGFP^+Sox9^+ cells was determined by the number of EGFP^+Sox9^+ cells divided by the total number of Sox9^+ cells. Cells were counted in ten random fields of view of a tissue section. […] To quantify Sox9/EGFP^+Ins^+ cells among ductal tubes, all Sox9/EGFP^+ ductal cells co-expressing insulin in ducts were counted on a section. […] Average count of each mouse was calculated. […]

[2] = tested on: Sox9+ pancreatic ductal cells; assay: Lineage tracing of Sox9+ ductal cells in Sox9CreERT2 R26mT/mG mice, long-term low-dose GE (islets); details: Sox9CreERT2 R26mT/mG C57BL/6 mice, TM 20 mg in five doses over 2 weeks
Protocol: 8 weeks old female Sox9^CreERT2 R26^mT/mG mice were first injected with Tamoxifen™ to label the Sox9/EGFP^+ cells, then the mice were induced to develop diabetes and treated with PBS or GE and monitored as described in FIG. 2A. At the end of experiments, pancreases were stained for Insulin and EGFP, and merged staining was also shown.
as §1
Percentage of EGFP^+Sox9^+ cells was determined by the number of EGFP^+Sox9^+ cells divided by the total number of Sox9^+ cells. Cells were counted in ten random fields of view of a tissue section. To quantify the number of lineage-labeled Insulin^+ cells, all Insulin^+ cells and Ins/EGFP^+Ins^+ cells on a section were counted, and then the percentage of Ins/EGFP^+Ins^+ cells amongst total Insulin^+ cells was determined. To quantify the number of lineage-labeled Insulin^+ cells arising from Sox9^+ cells, all Insulin^+ cells and Sox9/EGFP^+Ins^+ cells on a section were counted, and then the percentage of Sox9/EGFP^+Ins^+ cells among total Insulin^+ cells was determined. […] Average count of each mouse was calculated. […]

O=C1NC(=O)C(=O)C(=O)N1 [Alloxan]
Mouse No. with high hyperglycemia (BG ≥ 450 mg/dL) (C57BL/6 mice): 83
Mouse No. with medium hyperglycemia (300 ≤ BG < 450 mg/dL) (C57BL/6 mice): 101
Mouse No. with mild hyperglycemia (BG < 300 mg/dL) (C57BL/6 mice): 38
Percentage of mice with high hyperglycemia (BG ≥ 450 mg/dL) (C57BL/6 mice): 38%
Percentage of mice with medium hyperglycemia (300 ≤ BG < 450 mg/dL) (C57BL/6 mice): 45%
Percentage of mice with mild hyperglycemia (BG < 300 mg/dL) (C57BL/6 mice): 17%

CC/C(=C(\c1ccccc1)c1ccc(OCCN(C)C)cc1)c1ccccc1 [TM, Tamoxifen]
Pre-existing β cells in the islets labeled with EGFP [1]: more than 90%
Pancreatic Sox9-expression ductal epithelial cells labeled with EGFP [2]: over 90%
